The results in this text go back to patent US9624228B2, “Inhibitors of ERK and methods of use” (KURA ONCOLOGY, INC., priority 2013, dated 2017).

The structures appear in SMILES notation.

Sequence of ERK2 enzyme (P28482 whole entry): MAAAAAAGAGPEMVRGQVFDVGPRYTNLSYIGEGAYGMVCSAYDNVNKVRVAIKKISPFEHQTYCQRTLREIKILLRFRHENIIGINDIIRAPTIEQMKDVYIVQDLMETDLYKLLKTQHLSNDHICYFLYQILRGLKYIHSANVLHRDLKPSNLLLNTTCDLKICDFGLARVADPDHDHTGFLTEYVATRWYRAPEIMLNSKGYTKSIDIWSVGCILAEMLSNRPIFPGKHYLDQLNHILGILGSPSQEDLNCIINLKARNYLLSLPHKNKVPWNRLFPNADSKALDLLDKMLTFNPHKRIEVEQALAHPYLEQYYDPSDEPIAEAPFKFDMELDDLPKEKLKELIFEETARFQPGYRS

The first experiment concerns the target ERK2 enzyme (Homo sapiens (Human), UniProt P28482). Nature of the experiment: Inhibition assay of ERK (Z'-LYTE kinase assay, Ser/Thr 3 peptide substrate). The note with it: In vitro ERK2 enzyme, 100 μM ATP. The format is biochemical.
Usually IC50 stands for the concentration at which inhibition is half-maximal. A high value points to weaker potency in that assay. As to `Nc1ncc(-c2n[nH]c3cc4c(cc23)CN(Cc2cccc(Cl)c2)C(=O)N4)cn1` [Compound 93], the half-maximal inhibitory concentration (IC50) was below 50 nM.
On the same count and under the same terms, next, `Cc1cc(-c2n[nH]c3cc4c(cc23)CN([C@@H]2CCCN(C)C2)C(=O)N4)ccn1` [Compound 33]: below 50 nM; `Cc1cc(-c2n[nH]c3cc4[nH]c(=O)c(C(C)C5CCCCC5)cc4cc23)ccn1` (stereo not drawn) [Compound 160]: 50 to 250 nM; `Cc1cc(-c2n[nH]c3cc4c(cc23)CN(CCNCc2ccccc2)C(=O)N4)ccn1` [Compound 149]: below 50 nM.
Still for that read-out and setting: under `COc1ccc(-c2n[nH]c3cc4c(cc23)CN(Cc2ccc(F)cc2)C(=O)N4)cn1` [Compound 76] stands below 50 nM; under `Cc1cc(-c2n[nH]c3cc4c(cc23)CN(C2CN(CCc3ccccc3)C2)C(=O)N4)ccn1` [Compound 192], 50 to 250 nM.
Still for that read-out and setting: next, `O=C1Nc2cc3[nH]nc(-c4ccnnc4)c3cc2CN1[C@H](CO)c1cccc(Cl)c1` [Compound 117]: below 50 nM.
For the compound `COc1ncc(-c2n[nH]c3cc4c(cc23)CN(Cc2cccc(Cl)c2)CC(=O)N4)cn1` [Compound 98], the half-inhibitory concentration (IC50) was above 1000 nM.
Same read-out and setting: next, `Cc1cc(-c2n[nH]c3cc4c(cc23)CN(Cc2cc(F)cc(F)c2)C(=O)N4)ccn1` [Compound 7]: below 50 nM; `COc1cccc(F)c1CN1CCC(N2Cc3cc4c(-c5ccnnc5)n[nH]c4cc3NC2=O)CC1` [Compound 116]: 50 to 250 nM.
Same read-out and setting: under `Cc1cc(-c2n[nH]c3cc4c(cc23)CN(CCN)C(=O)N4)ccn1` [Compound 83] stands below 50 nM; under `COc1ccc(-c2n[nH]c3cc4c(cc23)CN(Cc2cccc(Cl)c2)C(=O)N4)cn1` [Compound 75], below 50 nM.
Take `Cc1cc(-c2n[nH]c3cc4c(cc23)CN([C@@H]2CCCN(Cc3ccc(F)cc3F)C2)C(=O)N4)ccn1` [Compound 196]: the half-maximal inhibitory concentration (IC50) is below 50 nM.
The compound `Cc1cc(-c2n[nH]c3cc4c(cc23)CN([C@@H]2CCC[C@H](NCc3ccccc3)C2)C(=O)N4)ccn1` [Compound 177] gave a half-maximal inhibitory concentration (IC50) below 50 nM.
The compound `Cc1cc(-c2n[nH]c3cc4c(cc23)CN([C@@H]2CCCN(Cc3cc(C(C)(C)C)no3)C2)C(=O)N4)ccn1` [Compound 186] registered an IC50 of 50 to 250 nM.
The same measure, in the same setting: under `O=C1Nc2cc3[nH]nc(Br)c3cc2CN1Cc1ccc(F)cc1` [Compound 29] stands 250 to 1000 nM; under `[2H]c1c([2H])c([2H])c(C([2H])([2H])N2CCC[C@@H](N3Cc4cc5c(-c6ccnc(C)c6)n[nH]c5cc4NC3=O)C2)c([2H])c1[2H]` [Compound 165], below 50 nM; under `Cc1cc(-c2n[nH]c3cc4c(cc23)CN([C@@H]2CCCN(c3cccc(Cl)c3)C2)C(=O)N4)ccn1` [Compound 174], below 50 nM.
The compound `Cc1cc(-c2n[nH]c3cc4c(cc23)CN([C@@H]2CCCN(Cc3cnccc3C)C2)C(=O)N4)ccn1` [Compound 183] had an IC50 of 50 to 250 nM.
Take `Cc1cc(-c2n[nH]c3cc4[nH]c(=O)c(Cc5ccc(F)cc5)cc4cc23)ccn1` [Compound 21]: the IC50 fell in the range of 50 to 250 nM.
`Cc1cc(-c2n[nH]c3cc4[nH]c(=O)n(Cc5cccc(Cl)c5)c(=O)c4cc23)ccn1` [Compound 24] came in with a half-maximal inhibitory concentration (IC50) of 50 to 250 nM.
The compound `Cc1cc(-c2n[nH]c3cc4c(cc23)CN([C@H](C)c2ccc(F)cc2)C(=O)N4)ccn1` [Compound 5] gave an IC50 of 50 to 250 nM.
Consider `Cc1cc(-c2n[nH]c3cc4c(cc23)CN([C@@H]2CCCN(Cc3cc(C)no3)C2)C(=O)N4)ccn1` [Compound 139], for which the IC50 is below 50 nM.
Same read-out and setting: next, `Cn1cc(-c2n[nH]c3cc4c(cc23)CN(Cc2ccc(F)c(Cl)c2)C(=O)N4)ccc1=O` [Compound 41]: below 50 nM; `Cc1cc(-c2n[nH]c3cc4c(cc23)CN([C@H](CO)c2cccc(Cl)c2)C(=O)N4)ccn1` [Compound 26]: below 50 nM; `Cc1cc(-c2n[nH]c3cc4c(cc23)CN([C@@H]2CCCN(Cc3ncccc3C)C2)C(=O)N4)ccn1` [Compound 168]: below 50 nM.
The same measure, in the same setting: under `Cc1cc(-c2n[nH]c3cc4c(cc23)CN(C2CCN(CC3CC3)CC2)C(=O)N4)ccn1` [Compound 69] stands 50 to 250 nM; under `COc1ncc(-c2n[nH]c3cc4c(cc23)CN(C)C(=O)N4)cn1` [Compound 96], 50 to 250 nM.
Same read-out and setting: under `Cc1cc(-c2n[nH]c3cc4c(cc23)CN([C@@H]2CCCN(C(C)c3ccccc3)C2)C(=O)N4)ccn1` (stereo partly drawn) [Compound 154] stands below 50 nM; under `COc1ccc(-c2n[nH]c3cc4c(cc23)CN(Cc2cc(F)cc(F)c2)C(=O)N4)cn1` [Compound 92], below 50 nM; under `Cc1cc(-c2n[nH]c3cc4c(cc23)CN(CCN(C)C)C(=O)N4)ccn1` [Compound 46], 50 to 250 nM.
The compound `Cc1cc(-c2n[nH]c3cc4c(cc23)CN([C@H](C)c2cccc(Cl)c2)C(=O)N4)ccn1` [Compound 35] returned an IC50 below 50 nM.
On the same count and under the same terms, under `Cc1cc(-c2n[nH]c3cc4c(cc23)CN([C@@H]2CCN(Cc3c(F)cccc3F)C2)C(=O)N4)ccn1` [Compound 147] stands 50 to 250 nM.
Same read-out and setting: under `COc1ccc(CN2Cc3cc4c(-c5ccnc(C)c5)n[nH]c4cc3NC2=O)cc1` [Compound 10] stands below 50 nM; under `COc1ncc(-c2n[nH]c3cc4c(cc23)CN(Cc2ccc(F)cc2)C(=O)N4)cn1` [Compound 72], below 50 nM; under `COc1ncc(-c2n[nH]c3cc4c(cc23)CN(CCc2ccc(F)cc2)C(=O)N4)cn1` [Compound 80], below 50 nM.
Still for that read-out and setting: next, `C[C@H](c1ccc(Cl)cc1)N1Cc2cc3c(-c4ccnnc4)n[nH]c3cc2NC1=O` [Compound 115]: below 50 nM.

The experiment is the same for the next values; noted with them: In vitro, ERK2 enzyme 0.47 ng/μL, 100 μM ATP.
In turn, `Cc1cc(-c2n[nH]c3cc4c(cc23)CN(Cc2nc(C)c(C)s2)C(=O)N4)ccn1` [Compound 228] registered an IC50 below 50 nM.
Still for that read-out and setting: under `O=C1Nc2cc3[nH]nc(-c4ccnnc4)c3cc2CN1[C@@H]1CN(CC(F)(F)F)C[C@H]1c1ccccc1` [Compound 340] stands below 50 nM; under `Cc1cc(-c2n[nH]c3cc4c(cc23)CN(Cc2cccc(C(F)(F)F)c2)C(=O)N4)ccn1` [Compound 240], below 50 nM.
Same read-out and setting: next, `Cc1cc(-c2n[nH]c3cc4c(cc23)CN([C@@H]2CN(C)C[C@H]2c2ccc(F)cc2)C(=O)N4)cc(C)n1` (racemic) [Compound 305]: 50 to 250 nM.
The same measure, in the same setting: under `Cc1cc(-c2n[nH]c3cc4c(cc23)CN([C@@H]2CN(C)C[C@H]2c2ccccc2F)C(=O)N4)cc(C)n1` (racemic) [Compound 306] stands below 50 nM; under `Cc1cc(-c2n[nH]c3cc4c(cc23)CN([C@@H]2CN(C)C[C@H]2c2ccccc2)C(=O)N4)cc(C)n1` (racemic) [Compound 248], below 50 nM.
On to `CC(c1ccccc1)c1cc2cc3c(-c4ccnnc4)n[nH]c3cc2[nH]c1=O` (stereo not drawn) [Compound 323], for which the IC50 was below 50 nM.
Same read-out and setting: under `COc1ncc(-c2n[nH]c3cc4c(cc23)CN([C@@H]2CN(CC(F)(F)F)C[C@H]2c2ccccc2)C(=O)N4)cn1` [Compound 348] stands below 50 nM; under `Cc1cc(-c2n[nH]c3cc4c(cc23)CN(C2CCC(=O)N(Cc3ccccc3)C2)C(=O)N4)ccn1` (stereo not drawn) [Compound 232], below 50 nM; under `Cc1cc(-c2n[nH]c3cc4c(cc23)CN(C(C)C2CCCC2)C(=O)N4)ccn1` (stereo not drawn) [Compound 294], below 50 nM.
Still for that read-out and setting: under `Cc1cc(-c2n[nH]c3cc4c(cc23)CN([C@@H]2CN(C)C[C@H]2c2ccccc2)C(=O)N4)cc(C)n1` [Compound 308] stands below 50 nM.
Still for that read-out and setting: next, `Cc1cc(-c2n[nH]c3cc4c(cc23)CN(C2CN(CC3CCCC3)CC(F)(F)C2)C(=O)N4)ccn1` (stereo not drawn) [Compound 201]: 250 to 1000 nM; `Cc1cc(-c2n[nH]c3cc4c(cc23)CN([C@H]2CCCN(Cc3ccccc3)C2)C(=O)N4)cc(C)n1` [Compound 363]: below 50 nM.
As for `Cc1cc(-c2n[nH]c3cc4c(cc23)CN(C2CN(CC3CC3)C2)C(=O)N4)ccn1` [Compound 198], the half-maximal inhibitory concentration (IC50) is 250 to 1000 nM.
Take `Cc1cc(-c2n[nH]c3cc4c(cc23)CN([C@@H]2CCCN(C(C)C)C2)C(=O)N4)ccn1` [Compound 247]: the IC50 was below 50 nM.
Regarding `Cc1cc(-c2n[nH]c3cc4c(cc23)CN([C@@H]2CCCN(CC(O)C(C)(C)C)C2)C(=O)N4)ccn1` (stereo partly drawn) [Compound 236], the IC50 lay within 50 to 250 nM.
As for `Cc1cc(-c2n[nH]c3cc4c(cc23)CN([C@H]2CN(CC(F)(F)F)C[C@@H]2c2ccccc2)C(=O)N4)ccn1` [Compound 303], the IC50 is 250 to 1000 nM.
As for `Cc1ncccc1-c1n[nH]c2cc3[nH]c(=O)c(C(C)c4ccccc4)cc3cc12` (stereo not drawn) [Compound 335], the IC50 was below 50 nM.
The compound `Cc1cc(-c2n[nH]c3cc4c(cc23)CN(CCC2CCOCC2)C(=O)N4)ccn1` [Compound 220] showed an IC50 below 50 nM.
`CC(c1ccccc1)c1cc2cc3c(N4CCOCC4)n[nH]c3cc2[nH]c1=O` (stereo not drawn) [Compound 345] had a 50% inhibitory concentration (IC50) below 50 nM.
As for `Cc1cc(-c2n[nH]c3cc4c(cc23)CN([C@@H]2CN(CC(F)(F)F)C[C@H]2C)C(=O)N4)ccn1` (racemic) [Compound 302], the IC50 is below 50 nM.
The same measure, in the same setting: next, `COc1ncc(-c2n[nH]c3cc4[nH]c(=O)c(C5CCCN(Cc6ccccc6)C5)cc4cc23)cn1` (stereo not drawn) [Compound 364]: below 50 nM; `Cc1cc(-c2n[nH]c3cc4c(cc23)CN([C@@H]2CCCN(Cc3csc(C)c3)C2)C(=O)N4)ccn1` [Compound 251]: below 50 nM.
Same read-out and setting: under `CCN1C[C@@H](N2Cc3cc4c(-c5ccnc(C)c5)n[nH]c4cc3NC2=O)[C@H](c2ccccc2)C1` (racemic) [Compound 278] stands below 50 nM; under `Cc1cc(-c2n[nH]c3cc4c(cc23)CN([C@H]2CCN(Cc3ccccc3)C2)C(=O)N4)ccn1` [Compound 301], below 50 nM; under `Cc1cc(-c2n[nH]c3cc4[nH]c(=O)c(C5CCCC5)cc4cc23)ccn1` [Compound 289], below 50 nM.
On the same count and under the same terms, under `Cc1cc(-c2n[nH]c3cc4c(cc23)CN([C@@H]2CCCN(CC(F)(F)F)C2)C(=O)N4)cc(C)n1` [Compound 244] stands below 50 nM; under `Cc1cc(-c2n[nH]c3cc4c(cc23)CN([C@@H]2CN(CC(F)F)C[C@H]2c2ccccc2)C(=O)N4)cc(C)n1` (mixture of isomers) [Compound 379], below 50 nM; under `Cc1cc(-c2n[nH]c3cc4c(cc23)CN([C@H]2CCN(CC(F)(F)F)C2)C(=O)N4)ccn1` [Compound 299], below 50 nM.
